“Also recorded” adds a separate entry of the source. Read-outs that look alike come from different tables or passages of the source.
How the values were obtained:
[1] = tested on: Snu398 cells; test: Lactate production assay, Snu398 (RapidFire-MS); conditions: Homo sapiens, SNU-398, read-out: lactate production EC50
[2] = target: Opioid Receptor m (Homo sapiens, UniProt P35372); test: Opioid Receptor m ANT; conditions: antagonist; read-out: pIC50 Opioid Receptor m ANT (converted)
Text: (§1) ANT = antagonist (pIC50), AG = agonist (pEC50). pIC50 and pEC50 are the negative logarithms10 of IC50 and EC50, respectively. Click here for file

[3] = human plasma protein binding by equilibrium dialysis; type: in vitro ADME
[4] = target: Potassium Channel Kv1.5 (Homo sapiens, UniProt P22460); test: Potassium Channel Kv1.5 ANT; conditions: antagonist; read-out: pIC50 Potassium Channel Kv1.5 ANT (converted)
Sequence of Potassium Channel Kv1.5 (P22460 whole entry): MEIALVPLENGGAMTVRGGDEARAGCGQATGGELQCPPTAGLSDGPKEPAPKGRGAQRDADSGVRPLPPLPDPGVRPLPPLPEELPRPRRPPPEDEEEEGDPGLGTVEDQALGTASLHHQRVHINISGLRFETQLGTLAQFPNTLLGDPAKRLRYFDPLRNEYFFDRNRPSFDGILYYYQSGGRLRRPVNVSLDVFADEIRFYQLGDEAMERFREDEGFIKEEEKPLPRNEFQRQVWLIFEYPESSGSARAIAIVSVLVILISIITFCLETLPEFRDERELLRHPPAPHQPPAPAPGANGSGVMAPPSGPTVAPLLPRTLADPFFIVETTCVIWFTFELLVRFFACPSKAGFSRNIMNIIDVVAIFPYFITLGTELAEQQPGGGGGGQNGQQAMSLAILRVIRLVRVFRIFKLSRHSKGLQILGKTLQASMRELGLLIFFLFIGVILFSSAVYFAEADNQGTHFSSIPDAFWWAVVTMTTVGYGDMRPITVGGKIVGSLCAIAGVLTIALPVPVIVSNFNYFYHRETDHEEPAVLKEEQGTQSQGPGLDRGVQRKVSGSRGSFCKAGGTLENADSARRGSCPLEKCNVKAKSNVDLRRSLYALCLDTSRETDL
Text: as §1

[5] = target: Dopamin Receptor D2 (Homo sapiens, UniProt P14416); test: Dopamin Receptor D2 AG; conditions: agonist; read-out: pEC50 Dopamin Receptor D2 AG (converted)
Sequence of Dopamin Receptor D2 (P14416 whole entry): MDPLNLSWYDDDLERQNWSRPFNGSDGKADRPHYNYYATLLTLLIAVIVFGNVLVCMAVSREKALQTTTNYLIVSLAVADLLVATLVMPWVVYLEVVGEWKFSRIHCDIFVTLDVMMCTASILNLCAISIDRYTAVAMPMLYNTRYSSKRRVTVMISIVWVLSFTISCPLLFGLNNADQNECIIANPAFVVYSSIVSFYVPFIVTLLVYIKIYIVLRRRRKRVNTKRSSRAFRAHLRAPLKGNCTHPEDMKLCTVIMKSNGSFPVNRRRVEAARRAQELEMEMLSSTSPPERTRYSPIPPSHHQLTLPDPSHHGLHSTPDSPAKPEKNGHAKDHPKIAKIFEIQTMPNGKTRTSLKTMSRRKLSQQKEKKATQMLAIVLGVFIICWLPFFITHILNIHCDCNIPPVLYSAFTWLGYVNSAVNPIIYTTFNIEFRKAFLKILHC
Text: as §1

[6] = target: Opioid Receptor k (Homo sapiens, UniProt P41145); test: Opioid Receptor k ANT; conditions: antagonist; read-out: pIC50 Opioid Receptor k ANT (converted)
Sequence of Opioid Receptor k (P41145 whole entry): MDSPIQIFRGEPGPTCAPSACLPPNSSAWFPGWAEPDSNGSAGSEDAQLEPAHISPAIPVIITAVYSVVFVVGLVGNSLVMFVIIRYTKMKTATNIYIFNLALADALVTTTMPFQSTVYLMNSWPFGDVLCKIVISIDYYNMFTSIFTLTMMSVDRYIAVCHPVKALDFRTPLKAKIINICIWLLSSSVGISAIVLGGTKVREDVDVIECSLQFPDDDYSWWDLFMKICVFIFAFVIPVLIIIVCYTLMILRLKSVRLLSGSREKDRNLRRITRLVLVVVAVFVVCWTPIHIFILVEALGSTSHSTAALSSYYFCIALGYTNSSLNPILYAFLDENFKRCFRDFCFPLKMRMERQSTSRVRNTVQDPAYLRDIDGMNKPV
Text: as §1

[7] = target: T1, Muscarinic Receptor M2 (Homo sapiens, UniProt P08172); test: Muscarinic Receptor M2 AG; conditions: agonist; read-out: pEC50 Muscarinic Receptor M2 AG (converted)
T1 sequence (P08172 1-466): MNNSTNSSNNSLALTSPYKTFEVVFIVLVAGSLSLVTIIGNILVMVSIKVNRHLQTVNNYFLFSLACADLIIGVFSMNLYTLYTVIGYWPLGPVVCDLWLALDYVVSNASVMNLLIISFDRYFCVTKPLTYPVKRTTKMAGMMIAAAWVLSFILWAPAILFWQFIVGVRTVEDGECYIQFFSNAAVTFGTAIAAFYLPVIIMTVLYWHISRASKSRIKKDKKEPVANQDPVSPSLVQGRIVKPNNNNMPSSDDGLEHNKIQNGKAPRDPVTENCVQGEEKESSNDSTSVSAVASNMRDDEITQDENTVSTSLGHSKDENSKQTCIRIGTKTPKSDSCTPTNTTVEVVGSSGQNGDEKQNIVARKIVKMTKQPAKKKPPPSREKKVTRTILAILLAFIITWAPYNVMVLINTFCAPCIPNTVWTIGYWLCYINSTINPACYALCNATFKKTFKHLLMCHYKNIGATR
Text: as §1

[8] = tested on: Snu398 cells; test: Oxygen consumption and extracellular acidification rates, Snu398 (Seahorse); type: cell-based; conditions: Homo sapiens, SNU-398, 92 min, Snu398, 92 minutes after addition
Procedure: (§2) One hundred twenty thousand Snu398 or HepG2 human hepatocellular carcinoma cells per well were plated in XF24 PS or XF96 PET cell culture microplates (Seahorse Biosciences, North Billerica, MA, USA) and allowed to attach and proliferate for 18 h. Cells were equilibrated with DMEM lacking bicarbonate (Seahorse Biosciences) supplemented with glucose at 37°C for 1 h in an incubator lacking CO2. The rate of change of dissolved O2 (oxygen consumption rate, OCR) and rate of change of pH (extracellular acidification rate, ECAR) in medium immediately surrounding the cells was measured in the XF24 Analyzer (Seahorse Biosciences) per manufacturer’s instructions. Compound doses were injected into the wells at the indicated times. For dose response curves, the OCR and ECAR levels obtained in each well before compound addition were subtracted from the values obtained 92 minutes after compound addition.

[9] = target: Nicotinic Ach Receptor A1 (Homo sapiens, UniProt P02708+P07510+Q07001); test: Nicotinic Ach Receptor A1 AG
Sequence of Nicotinic Ach Receptor A1 (P02708 21-457): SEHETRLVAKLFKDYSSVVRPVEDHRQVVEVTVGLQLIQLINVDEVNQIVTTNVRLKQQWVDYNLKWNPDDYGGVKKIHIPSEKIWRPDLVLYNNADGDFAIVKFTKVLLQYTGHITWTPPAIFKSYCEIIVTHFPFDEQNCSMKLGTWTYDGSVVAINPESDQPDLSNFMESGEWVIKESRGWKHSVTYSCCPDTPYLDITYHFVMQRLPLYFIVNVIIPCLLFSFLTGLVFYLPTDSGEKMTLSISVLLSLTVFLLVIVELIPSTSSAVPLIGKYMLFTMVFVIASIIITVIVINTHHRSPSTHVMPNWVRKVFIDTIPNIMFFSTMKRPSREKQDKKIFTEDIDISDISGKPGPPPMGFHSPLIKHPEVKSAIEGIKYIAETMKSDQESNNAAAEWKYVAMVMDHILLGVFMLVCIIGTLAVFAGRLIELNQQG
Sequence of Nicotinic Ach Receptor A1 (P11230 24-501 partner): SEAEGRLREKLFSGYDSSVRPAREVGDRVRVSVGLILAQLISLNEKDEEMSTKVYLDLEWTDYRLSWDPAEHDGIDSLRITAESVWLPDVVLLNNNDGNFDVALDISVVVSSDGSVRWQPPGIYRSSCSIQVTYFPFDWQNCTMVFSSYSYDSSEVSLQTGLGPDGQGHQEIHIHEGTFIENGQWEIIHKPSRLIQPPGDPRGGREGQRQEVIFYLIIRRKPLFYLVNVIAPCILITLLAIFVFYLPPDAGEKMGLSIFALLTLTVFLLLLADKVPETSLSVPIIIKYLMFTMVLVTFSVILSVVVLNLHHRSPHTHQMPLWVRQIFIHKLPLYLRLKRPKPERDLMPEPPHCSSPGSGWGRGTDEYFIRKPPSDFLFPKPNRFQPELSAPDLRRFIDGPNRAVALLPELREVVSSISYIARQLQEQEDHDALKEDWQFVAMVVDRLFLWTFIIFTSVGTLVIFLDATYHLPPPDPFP
Sequence of Nicotinic Ach Receptor A1 (Q07001 22-517): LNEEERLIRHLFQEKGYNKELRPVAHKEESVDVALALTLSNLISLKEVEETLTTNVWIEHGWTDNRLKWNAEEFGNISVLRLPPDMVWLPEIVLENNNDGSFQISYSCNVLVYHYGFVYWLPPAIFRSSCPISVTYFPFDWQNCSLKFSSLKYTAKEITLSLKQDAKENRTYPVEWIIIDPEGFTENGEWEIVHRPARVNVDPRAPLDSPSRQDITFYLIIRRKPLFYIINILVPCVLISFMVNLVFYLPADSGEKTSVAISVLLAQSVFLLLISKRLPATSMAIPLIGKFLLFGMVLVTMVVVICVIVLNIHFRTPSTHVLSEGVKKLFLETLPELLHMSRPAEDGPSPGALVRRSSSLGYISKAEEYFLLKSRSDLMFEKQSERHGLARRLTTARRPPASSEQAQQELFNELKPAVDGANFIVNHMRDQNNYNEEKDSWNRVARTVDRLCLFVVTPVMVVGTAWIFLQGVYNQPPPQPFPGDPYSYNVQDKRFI
Sequence of Nicotinic Ach Receptor A1 (P07510 23-517): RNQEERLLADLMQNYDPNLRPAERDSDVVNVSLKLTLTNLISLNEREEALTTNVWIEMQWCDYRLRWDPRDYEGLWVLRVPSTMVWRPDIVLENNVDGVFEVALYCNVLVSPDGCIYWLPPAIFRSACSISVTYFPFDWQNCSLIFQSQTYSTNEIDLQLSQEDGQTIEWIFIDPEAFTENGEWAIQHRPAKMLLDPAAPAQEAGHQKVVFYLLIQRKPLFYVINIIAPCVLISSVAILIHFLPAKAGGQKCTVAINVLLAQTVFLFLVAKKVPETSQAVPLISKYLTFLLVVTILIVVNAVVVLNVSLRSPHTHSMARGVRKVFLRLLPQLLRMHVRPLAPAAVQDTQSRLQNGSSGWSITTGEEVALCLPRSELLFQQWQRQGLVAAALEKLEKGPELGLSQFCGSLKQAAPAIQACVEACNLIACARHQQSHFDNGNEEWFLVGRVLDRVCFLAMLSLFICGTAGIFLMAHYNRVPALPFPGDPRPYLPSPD
Text: as §1

[10] = target: Potassium Channel KCNQ1 (Homo sapiens, UniProt P51787); test: Potassium Channel KCNQ1 ANT; conditions: antagonist; read-out: pIC50 Potassium Channel KCNQ1 ANT (converted)
Text: as §1

[11] = target: Serotonin Receptor 5H1; test: Serotonin Receptor 5H1 ANT; conditions: antagonist
Text: as §1

[12] = tested on: Snu398 cells; test: 13C NMR spectroscopy of glucose consumption and lactate production, Snu398; type: cell-based, human
Procedure: After this pre-incubation, cells were washed in PBS and resuspended in 400 μL of glucose-free RPMI supplemented with 10% deuterium oxide, 11 mM D-(1,6-^13C2)glucose, and LDHA inhibitor or DMSO. An additional 600 μL of the same medium was gently added to top off the resuspended cells. Five mm NMR tubes with reduced sample depth (Shigemi Inc, Allison Park, PA, USA) were used to ensure that the cells remain inside the active volume of the receiver coil of the probe. […] . Prior to Fourier transformation, sensitivity and resolution were enhanced by applying an exponential line-broadening of 1 Hz over the first 32,000 data points and then zero filled to 256,000 data points. Spectra were analyzed using in-house data analysis software.

[13] = target: Adrenergic Receptor a1B (Homo sapiens, UniProt P35368); test: Adrenergic Receptor a1B ANT
Sequence of Adrenergic Receptor a1B (P35368 whole entry): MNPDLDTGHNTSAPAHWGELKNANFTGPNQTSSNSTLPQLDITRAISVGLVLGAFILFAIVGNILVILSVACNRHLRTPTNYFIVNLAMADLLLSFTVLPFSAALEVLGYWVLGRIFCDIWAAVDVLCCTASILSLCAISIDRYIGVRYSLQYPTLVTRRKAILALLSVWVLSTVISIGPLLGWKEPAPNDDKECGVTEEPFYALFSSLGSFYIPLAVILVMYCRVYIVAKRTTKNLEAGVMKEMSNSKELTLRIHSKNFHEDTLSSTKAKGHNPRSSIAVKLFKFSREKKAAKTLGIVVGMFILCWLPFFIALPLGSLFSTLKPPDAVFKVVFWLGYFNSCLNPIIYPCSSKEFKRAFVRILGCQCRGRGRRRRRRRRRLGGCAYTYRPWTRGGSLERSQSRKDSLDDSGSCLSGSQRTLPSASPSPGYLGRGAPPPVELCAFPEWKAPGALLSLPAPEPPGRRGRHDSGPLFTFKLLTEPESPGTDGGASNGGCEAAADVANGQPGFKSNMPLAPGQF
Text: as §1

[14] = tested on: HepG2 cells; test: Oxygen consumption and extracellular acidification rates, HepG2 (Seahorse); type: cell-based, human; conditions: for EC50: Homo sapiens, 92 min, HepG2, 92 minutes after addition
Procedure: as §2
For XF96 experiments breast cancer cells were seeded in DMEM without bicarbonate at 16,000/well in XF96 V3 PET plates (Seahorse Biosciences) coated with CellTak (BD Biosciences, San Jose, CA, USA). […] HepG2 cells were seeded at 16K/well in XF96 V3 PET plates and left overnight for attachment. The medium was exchanged with DMEM without bicarbonate prior to readings on the XF96 Analyzer (Seahorse Biosciences).

[15] = tested on: cancer cell lines; test: Lactate production assay, panel of cancer cell lines; conditions: Homo sapiens, read-out: lactate production EC50 across cell lines
[16] = target: Phosphodiesterase 4B (Homo sapiens, UniProt Q07343); test: Phosphodiesterase 4B ANT; type: biochemical; conditions: antagonist; read-out: pIC50 Phosphodiesterase 4B ANT (converted)
Sequence of Phosphodiesterase 4B (Q07343 whole entry): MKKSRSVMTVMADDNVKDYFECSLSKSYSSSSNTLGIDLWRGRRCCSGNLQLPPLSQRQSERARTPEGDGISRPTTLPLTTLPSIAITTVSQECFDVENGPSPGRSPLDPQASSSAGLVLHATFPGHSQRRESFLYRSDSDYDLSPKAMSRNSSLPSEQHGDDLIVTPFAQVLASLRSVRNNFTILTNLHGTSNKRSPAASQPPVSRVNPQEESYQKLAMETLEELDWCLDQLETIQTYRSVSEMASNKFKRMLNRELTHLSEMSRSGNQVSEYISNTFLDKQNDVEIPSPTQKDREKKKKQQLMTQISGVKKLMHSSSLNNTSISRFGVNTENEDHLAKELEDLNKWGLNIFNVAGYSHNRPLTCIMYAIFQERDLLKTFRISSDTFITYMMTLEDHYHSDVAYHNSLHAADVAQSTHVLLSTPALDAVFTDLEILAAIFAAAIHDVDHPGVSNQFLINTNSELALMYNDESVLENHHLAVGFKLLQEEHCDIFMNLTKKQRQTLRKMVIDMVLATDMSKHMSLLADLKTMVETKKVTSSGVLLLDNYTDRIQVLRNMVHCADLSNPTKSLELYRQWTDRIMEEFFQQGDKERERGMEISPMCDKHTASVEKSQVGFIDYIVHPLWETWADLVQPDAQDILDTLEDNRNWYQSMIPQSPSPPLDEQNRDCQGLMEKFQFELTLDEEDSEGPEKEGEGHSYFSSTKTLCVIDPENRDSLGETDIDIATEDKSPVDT
Text: as §1

[17] = tested on: Snu398 cells; test: Fructose-1,6-bisphosphate (FBP) analysis; type: cell-based, human; conditions: Snu398, 10 μM, 24 h R10 or 6 h low glucose
Procedure: Treatment was carried out for 24 h in R10 or for 6 h in low glucose medium. At the end of this treatment, cells were washed, lifted by trypsinization, counted, and cell pellets were submitted for analysis of FBP to Apredica, Inc.

[18] = target: recombinant human LDHB (Homo sapiens, UniProt P07195); test: recombinant human LDHB enzyme assay (lactate to pyruvate, NADH via diaphorase/resazurin)

Sequence of Opioid Receptor m (P35372 whole entry): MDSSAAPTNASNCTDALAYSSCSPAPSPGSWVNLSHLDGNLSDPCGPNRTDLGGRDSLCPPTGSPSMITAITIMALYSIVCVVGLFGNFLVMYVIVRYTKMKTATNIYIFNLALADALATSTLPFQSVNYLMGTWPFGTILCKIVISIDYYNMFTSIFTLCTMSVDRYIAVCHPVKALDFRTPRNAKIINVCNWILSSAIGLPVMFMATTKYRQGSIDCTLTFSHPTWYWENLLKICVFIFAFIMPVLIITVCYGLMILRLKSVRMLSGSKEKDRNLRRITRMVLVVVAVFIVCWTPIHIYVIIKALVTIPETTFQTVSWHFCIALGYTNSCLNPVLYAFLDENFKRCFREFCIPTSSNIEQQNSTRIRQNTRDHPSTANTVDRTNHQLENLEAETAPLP

Row | Compound | EC50 [1] [µM] | IC50 [2] [µM] | IC50 [4] [µM] | EC50 [5] [µM] | IC50 [6] [µM] | EC50 [7] [µM] | IC50 [10] [µM] | pIC50 Serotonin Receptor 5H1 ANT [11] | IC50 [16] [µM] | intracellular fructose-1,6-bisphosphate (FBP) level [17] | also measured
1 | COc1ncc(-c2ccc3c(Nc4cc(Oc5cc(F)cc(F)c5)cc(C(=O)O)c4)c(S(=O)(=O)NC4CC4)cnc3c2)c(OC)n1 [Compound 1] | 0.4 ± 0.1 | 63.1 | 50.1 | 100 | 31.6 | 15.8 | 25.1 | 4.7 | 1.26 | increase intracellular levels of fructose-1,6-bisphosphate (FBP); also recorded: Increase in fructose-1,6-bisphosphate (FBP) | fraction unbound [3]: 0.013; EC50 ([8]; read-out: ECAR change EC50): 0.6 ± 0.2 µM; EC50 ([8]; read-out: OCR change EC50): 0.5 ± 0.3 µM; EC50 [9]: 50.1 µM; (3-13C)lactate production ([12]; Snu398, 10 μM): significantly slowed down lactate production; D-(1,6-13C2)glucose consumption ([12]; Snu398 versus HepG2, 10 μM): only affected glucose consumption in Snu398 cells; IC50 [13]: 12.6 µM; oligomycin-dependent OCR (OCROLG) ([14]; 10 μM): OCROLG was reduced; oligomycin-dependent OCR (OCROLG) ([14]; 1 to 3 μM, glucose/glutamine medium): increased oligomycin-dependent OCR; EC50 ([14]; read-out: ECAR change EC50): 0.6 ± 0.1 µM; EC50 ([14]; read-out: OCR change EC50): 0.9 ± 0.3 µM; EC50 [15]: ≥ 0.4 µM
2 | COc1ncc(-c2ccc3c(Nc4cc(C(=O)O)cc(C5CCCC5)c4)c(S(=O)(=O)NC4CC4)cnc3c2)c(OC)n1 [Compound 2] | 0.6 ± 0.2 | 31.6 | 50.1 | 100 | 50.1 | 15.8 | 25.1 | 4.4 | 0.501 | increase intracellular levels of fructose-1,6-bisphosphate (FBP) | IC50 [18]: 0.22 ± 0.02 µM; EC50 ([9]; agonist, read-out: pEC50 Nicotinic Ach Receptor A1 AG (converted)): 50.1 µM; IC50 ([13]; antagonist, read-out: pIC50 Adrenergic Receptor a1B ANT (converted)): 31.6 µM
